Columns and labels:
Escherichia coli (β) = experiment: Shake culture with surfactant, time course of protein production (Example 1, FIG. 1); assay type: cell-based; conditions: surfactant 1%; after 21 hours from the initiation
Protocol: Escherichia coli (β) was inoculated in 10 mL of an LB culture medium and was shake-cultured at 37° C. overnight. In this manner, a culture solution was prepared. The strains were collected using a centrifuge and the collected Escherichia coli (β) strain was resuspended in 10 ml of a TB culture medium (product of Difco). Shake culture at 37° C. induced expression of torA. Sampling was performed after 0, 0.5, 1, and 2 hours from the start of the shake culture, and harvesting using a centrifuge was carried out for each sampled solution. Collected bacterial cells were suspended in a buffer solution (50 mM Tris (pH 7.5), 100 mM NaCl) and ultrasonic fragmentation was performed (200 W, 10 minutes). Then, an SDS-PAGE analysis was performed to quantify the produced recombinant protein band. Based on the obtained data, the protein amount per gram of the bacterial cell was calculated and a graph was constructed.
The same processes were carried out as in Comparative Example 1 except that the surfactant A-7 was used as the surfactant (A) for the expression induction in an amount of 1% on the basis of the weight of the culture solution, and that sampling was performed after 0, 2, 4, 15, 19, and 21 hours from the initiation and analysis was performed on the supernatants of the centrifuged samples. A graph was similarly constructed.

Escherichia coli(ε) = experiment: Production by secretion in microbial culture system, protease expressing strain (Table 5); assay type: cell-based; conditions: Example 12, surfactant 1 wt %
From the text: A subtilisin Carlsberg gene of a Bacillus licheniformis was amplified by the PCR method using primers 7 and 8 (Table 4). After being treated with restriction enzymes NcoI and BamHI, a PCR amplified fragment was bound to an NcoI restriction enzyme site and a BamHI restriction enzyme site of a pET-22b plasmid (product of Novagen). Then, the plasmid was transformed into a BL21 (DE3) Escherichia coli strain (product of Novagen) to form Escherichia coli (ε) that expresses protease.
Overnight cultures (1 ml) of Escherichia coli (δ) obtained in Production Example 4 and Escherichia coli (ε) obtained in Production Example 5 were respectively prepared as Comparative Example 2 and Comparative Example 4. An amount of 0.5 ml of each was inoculated in 5 ml of an LB culture solution (containing 100 mg/L of ampicillin) and was shake-cultured at 30° C. for 3 hours. In this manner, pre-culture solutions were prepared. […] The whole protein in the culture solution was analyzed by SDS-PAGE. Based on the obtained amount of the protein band, the recombinant protein was quantified.
Performance of this processes for several times clarified the proportional relationship between the turbidity of the culture solution and the dried cell density. Therefore, the dried cell density was obtained from the measured turbidity in each of Comparative Examples 2 to 4 and Examples 2 to 14. […]

Substance	Dried cell density of the culture solution (Escherichia coli (β)) [g/L]	Turbidity (Escherichia coli(ε))	Dried cell density (Escherichia coli(ε); obtained from turbidity) [g/L]	Quantitative value of produced recombinant protein (Escherichia coli(ε); supernatant, SDS-PAGE) [g/L]
Sodium cocaminopropionate [A-7]	1.72	–	–	–
Cured palm oil fatty acid amidopropyl dimethyl aminoacetate betaine [A-6]	–	95	26.6	0.37

— patent US9328369B2, “Process for production of useful substance, and surfactant for use in the process” (priority 2009, dated 2016)
